The text below walks through data of US11649233B2, “Halo-allylamine SSAO/VAP-1 inhibitor and use thereof” (Nanjing Transthera Biosciences Co., Ltd., priority 2017, dated 2023).

Where a name gives a salt, the structure may show the parent alone.

For data set [1], the target named is T1, rhVAP-1 (Homo sapiens (Human), UniProt Q16853). The data set is described as follows: Inhibition activity of the compounds on the rhVAP-1 enzyme (Amplex Red/HRP fluorescence, benzylamine substrate). It counts as biochemical. As to conditions: 30 minutes pre-incubation at 37° C. Here is the method: 1. Inhibition Activity of the Compounds on the rhVAP-1 Enzyme
Multifunctional microplate reader (MD, FlexStation 3), black bottom-impermeable 96-well plate (Corning), rhVAP-1 (PeproTech)
An appropriate amount of the test compound was dissolved in DMSO to 10 mM and stored. Before the experiment, an appropriate amount of 10 mM test compound mother liquor was diluted to 10 μM solution with DMSO. Then 3-fold gradient dilution with DMSO was performed, and 10 concentration gradients were formed.
An appropriate amount of protein diluent was added to the rhVAP-1 powder to obtain 1 mg/mL of the mother liquor for storage. Before the experiment, the dilution with PBS provided a 4×concentration of the enzyme solution.
An appropriate amount of benzylamine was added to PBS and dissolved to obtain 200 mM of the benzylamine solution. 2 mM Amplex Red mother liquor and 500 U/mL HRP mother liquor were added. The dilution with PBS provided 2×concentration substrate mixed solution.
(§1) First, 10 μL of compound solutions of different concentrations, 25 μL of 4×rhVAP-1 enzyme solution and 15 μL of PBS were added to a 96-well plate, evenly mixed by oscillation, and incubated at 37° C. for 30 minutes. Then 50 μL of 2×substrate mixed solution was added to each well, and immediately the detection was performed with the microplate reader in a condition of an exciting light at 565 nm, an emitting light at 590 nm, the fluorescence intensity for detecting each well of 5 minutes/run, and a total detection time of 25 minutes. The inhibition rate was calculated according to the following formula: V(RFU/min)=(Ft(RFU)−F0(RFU))/(Time(min)) Inhibition rate (%)=100%−Vcmpd(RFU/min)/V max(RFU/min)×100%
(§2) V: the fluorescence change rate; Ft: fluorescence reading at the time point t; F0: fluorescence reading at the time point 0; Time: time period t; Vcmpd: the fluorescence change rate of the test compound; Vmax: the Max well fluorescence change rate.
(§3) The log values of the concentrations were taken as the X-axis and the percent inhibition rates were taken as the Y-axis, and the dose-effect curve was fitted using the log(inhibitor) vs. response-Variable slope of the analytical software GraphPad Prism 5 to obtain the IC50 value of each compound for enzyme activity.

The next data set deals with MAO-A (Homo sapiens (Human), UniProt P21397). The data set is described as follows: Selectivity of the compounds for MAO-A enzyme (MAO-Glo). It is filed as biochemical. Particulars: 60 minutes pre-incubation at 37° C. The method, then: (§4) 2. Selectivity of the Compounds for MAO-A/B Enzymes
(§5) Microplate reader (Perkin Elmer, Envision), 384 well plates (Perkin Elmer), centrifuge (Eppendorf), MAO-Glo™ (Promega), MAO-A (Active Motif) and MAO-B (Active Motif).
(§6) An appropriate amount of the test compound was dissolved in DMSO to 10 mM and stored. Before the experiment, an appropriate amount of 10 mM test compound mother liquor was diluted to 100 μM solution with DMSO. Then 4-fold gradient dilution with DMSO was performed, and 6 concentration gradients were formed.
(§7) The MAO-A/B mother liquor was diluted to 2×concentration enzyme solution with the assay buffer solution for the MAO-A/B.
(§8) The mother liquor of the MAO-A/B substrate mixed solution was diluted to 2×concentration substrate mixed solution with the assay buffer solution for the MAO-A/B.
(§9) 200 nL of compound solutions of different concentrations or solvent
(§10) and 10 μL of 2×MAO-A/B enzyme solution were added to a 384-well plate, evenly mixed by oscillation, and incubated at 37° C. for 60 minutes. Then 10 μL of 2×substrate mixed solution was added to each well, and immediately the detection was performed with the microplate reader in a condition of an exciting light at 535 nm, an emitting light at 587 nm, the fluorescence intensity for detecting each well of 5 minutes/run, and a total detection time of 25 minutes.
(§11) The inhibition rate was calculated according to the following formula: V(RFU/min)=(Ft(RFU)−F0(RFU))/(Time(min)) Inhibition rate (%)=100%−Vcmpd(RFU/min)/V max(RFU/min)×100%
as §2, §3

Data set [2] in a line: Stability test in human liver microsome. It counts as in vitro ADME. As to conditions: human liver microsome 0.5 mg protein/mL, compound 1 μM, β-NADPH. The method, then:
Biological Example 3: Stability Test of the Compounds of the Present Invention in Human Liver Microsome
The composition of the incubation system:
(1) The liver microsome (20 mg protein/mL) was removed from the −80° C. refrigerator, pre-incubated in a 37° C. water bath constant temperature oscillator for 3 minutes, and thawed for use.
(2) A mixed solution of the incubation system (excluding compound and β-NADPH) according to the above “composition of the incubation system” for the test was prepared, and pre-incubated in a 37° C. water bath constant temperature oscillator for 2 minutes.
(3) Control group (excluding β-NADPH): 30 μL of water and 30 μL of compound working solution (concentration: 10 μM) were added to 240 μL of the mixed solution of the incubation system of step (2), and vortexed for 30 seconds to mix well. The total reaction volume was 300 μL. A duplicate sample was prepared. The sample was incubated in a 37° water bath constant temperature oscillator. The timing began and the sampling time points were set at 0 minute and 60 minutes.
(4) Sample group: 70 μL β-NADPH solution (10 mM) and 70 μL compound working solution (concentration: 10 μM) were added to 560 μL of the mixed solution in step (2). The total reaction volume was 700 μL. The resulting mixture was vortexed for 30 seconds to mix well. A duplicate sample was prepared. The sample was incubated in a 37° C. water bath constant temperature oscillator. The timing began and the sampling time points were set at 0 minute, 5 minutes, 10 minutes, 20 minutes, 30 minutes, and 60 minutes after timing.
(5) After vortexing for 3 minutes, the sample was centrifuged at 12000 rpm for 5 minutes.
(6) 150 μL of water was added to 50 μL of the supernatant. The resulting mixture was evenly mixed in vortex, and the sample LC/MS/MS analysis was performed.

A further data set concerns the target MAO-B (Homo sapiens (Human), UniProt P27338). The data set is described as follows: Selectivity of the compounds for MAO-B enzyme (MAO-Glo). It is filed as biochemical. As to conditions: 60 minutes pre-incubation at 37° C. Here is the method:
as §4, §5, §6, §7, §8, §9, §10, §11, §2, §3

The nature of data set [3]: In vitro stability test in the dog plasma. It is filed as in vitro ADME. Particulars: Beagle dog plasma, 37° C., 2 hours, 0.2 μM. The method, then:
Biological Example 2: In Vitro Stability Test of the Compound of the Present Invention in the Dog Plasma
Test compound: about 2 mg of test compound was prepared with DMSO into a 5 mM stock solution, then diluted with DMSO to 1 mM solution, and finally diluted with water to 50 μM test compound working solution for use.
Termination solution: about 2 mg of tolbutamide compound was firstly prepared with DMSO into a 1 mg/mL stock solution, finally diluted with acetonitrile to 100 ng/mL termination solution, and stored at 4° C. for later use.
(1) Frozen Beagle dog plasma was pre-incubated and thawed in a 37° C. water bath constant temperature oscillator for use.
(2) 10 μL of test compound (10 μM) was added to 490M (Beagle dog plasma, final concentration of the test substance was 0.2 μM, two duplicate samples.
(3) The sample was evenly mixed in vortex and incubated in a 37° C. water bath constant temperature oscillator.
(4) At the corresponding time points (T=0 h, 0.5 h, 1 h, 2 h; sample at 0 h was not incubated), 400 μL of the termination solution was added to 40 μL of the reaction solution obtained by reacting the test compound of step (2) and the components in the blood plasma, and the resulting mixture was evenly mixed and frozen at −80° C. for storage. […]

Data set [4] concerns the target T1, rhVAP-1. The data set is described as follows: Time-dependent inhibition assay for the rhVAP-1 enzyme. It is filed as biochemical. The method, then: Biological example 4: Time-dependent inhibition assay for the rhVAP-1 enzyme
After incubation of the test substances at corresponding time intervals according to Table 4, the activity was measured at each time point in the same manner as in the rhVAP-1 enzymatic test method of biological example 1.
as §1, with “Specifically,” for “First,”, “concentrations or solvent,” for “concentrations,”, “0 minutes, 3 minutes, 6 minutes, 9 minutes and 12” for “30”, “minutes.” for “minutes. The inhibition rate was calculated according to the following formula: V(RFU/min)=(Ft(RFU)−F0(RFU))/(Time(min)) Inhibition rate (%)=100%−Vcmpd(RFU/min)/V max(RFU/min)×100%”

T1 sequence (Q16853 whole entry): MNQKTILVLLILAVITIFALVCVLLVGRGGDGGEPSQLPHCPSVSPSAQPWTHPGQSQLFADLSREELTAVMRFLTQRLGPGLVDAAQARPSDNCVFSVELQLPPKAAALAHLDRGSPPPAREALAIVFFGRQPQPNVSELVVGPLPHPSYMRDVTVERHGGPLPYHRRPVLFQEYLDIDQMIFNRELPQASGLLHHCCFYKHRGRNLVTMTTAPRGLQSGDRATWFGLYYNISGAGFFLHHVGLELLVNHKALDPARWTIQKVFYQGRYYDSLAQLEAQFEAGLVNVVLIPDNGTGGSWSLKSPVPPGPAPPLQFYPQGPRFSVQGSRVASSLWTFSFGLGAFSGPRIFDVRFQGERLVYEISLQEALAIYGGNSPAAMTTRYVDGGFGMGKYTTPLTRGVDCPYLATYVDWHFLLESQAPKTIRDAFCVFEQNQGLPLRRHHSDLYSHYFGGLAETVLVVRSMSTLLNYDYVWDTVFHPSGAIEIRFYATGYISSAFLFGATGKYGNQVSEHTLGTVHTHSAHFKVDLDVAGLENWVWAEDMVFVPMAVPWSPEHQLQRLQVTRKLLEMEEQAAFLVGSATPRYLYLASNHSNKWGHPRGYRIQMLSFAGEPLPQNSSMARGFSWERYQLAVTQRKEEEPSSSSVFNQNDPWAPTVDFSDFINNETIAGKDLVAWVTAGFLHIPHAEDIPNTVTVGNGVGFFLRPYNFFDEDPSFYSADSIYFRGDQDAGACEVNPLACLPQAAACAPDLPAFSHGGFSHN
Sequence of MAO-A (P21397 whole entry): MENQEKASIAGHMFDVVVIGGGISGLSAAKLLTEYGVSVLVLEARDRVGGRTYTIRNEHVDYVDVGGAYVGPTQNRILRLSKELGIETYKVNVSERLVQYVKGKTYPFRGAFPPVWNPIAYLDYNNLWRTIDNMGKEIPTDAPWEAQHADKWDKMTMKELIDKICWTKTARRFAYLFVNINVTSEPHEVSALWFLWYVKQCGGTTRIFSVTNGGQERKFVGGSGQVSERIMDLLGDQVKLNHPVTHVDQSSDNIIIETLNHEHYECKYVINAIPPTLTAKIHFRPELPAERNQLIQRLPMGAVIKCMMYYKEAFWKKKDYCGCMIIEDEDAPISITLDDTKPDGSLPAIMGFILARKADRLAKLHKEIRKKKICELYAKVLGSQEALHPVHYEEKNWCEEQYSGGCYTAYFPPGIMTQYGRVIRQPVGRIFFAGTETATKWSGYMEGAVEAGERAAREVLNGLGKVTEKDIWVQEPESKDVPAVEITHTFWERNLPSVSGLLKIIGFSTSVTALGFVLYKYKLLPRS
Sequence of MAO-B (P27338 whole entry): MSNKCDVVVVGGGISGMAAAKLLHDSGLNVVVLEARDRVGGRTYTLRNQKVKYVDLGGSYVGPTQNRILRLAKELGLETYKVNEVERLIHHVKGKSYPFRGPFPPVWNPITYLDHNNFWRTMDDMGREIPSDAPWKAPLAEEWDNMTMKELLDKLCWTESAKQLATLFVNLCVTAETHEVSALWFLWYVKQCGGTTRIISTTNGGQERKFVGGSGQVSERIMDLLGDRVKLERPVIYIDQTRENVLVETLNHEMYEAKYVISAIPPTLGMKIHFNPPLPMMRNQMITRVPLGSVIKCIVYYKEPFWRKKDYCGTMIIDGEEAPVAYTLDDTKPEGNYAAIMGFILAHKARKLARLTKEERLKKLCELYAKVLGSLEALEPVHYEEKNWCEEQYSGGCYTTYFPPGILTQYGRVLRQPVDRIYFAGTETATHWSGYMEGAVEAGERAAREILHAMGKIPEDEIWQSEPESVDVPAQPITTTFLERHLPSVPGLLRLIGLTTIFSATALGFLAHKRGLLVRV

`NC/C(=C\F)COc1ccc2c(c1)CCN(C1CC1)C2=O` [Hydrochloride of Compound 5, (E)-6-((2-(aminomethyl)-3-fluoroallyl)oxy)-2-cyclopropyl-3,4-dihydroisoquinolin-1(2H)-one]: the 50% inhibitory concentration (IC50) on rhVAP-1 [1] was determined as 18 nM; against MAO-A, 1300 nM; against MAO-B it was 6300 nM. Besides, the ClH in data set [2] amounted to 4.63 mL/min/kg. Besides, the “Retention Rate” value in data set [3] turned out to be 98.6%.

As for `NC/C(=C/F)COc1ccc2c(n1)CCN(C1CC1)C2=O` [Trifluoroacetate of Compound 23, (Z)-2-((2-(aminomethyl)-3-fluoroallyl)oxy)-6-cyclopropyl-7,8-dihydro-1,6-naphthyridin-5(6H)-one], the half-inhibitory concentration (IC50) turned out to be 14 nM against rhVAP-1 [1]; 10000 nM at MAO-A; 19000 nM at MAO-B; 206 nM against rhVAP-1 [4] (pre-incubation 0 minute); 18.6 nM against rhVAP-1 [4] (pre-incubation 3 minutes); 15.2 nM against rhVAP-1 [4] (pre-incubation 6 minutes). Also, the half-inhibitory concentration (IC50) against rhVAP-1 [4] (pre-incubation 9 minutes) was 14 nM; against rhVAP-1 [4] (pre-incubation 12 minutes), 12.5 nM.

By IC50 is commonly meant the concentration at which inhibition is half-maximal. Read a high IC50 as weaker potency in that assay.
